From article PMC8533206 (Antioxidants, 2021)
Several values for one entry are separate records, joined by “and”; a condition that tells them apart may be missing. Equal entries are not always repeated.

Legend:
[1] = biological target: T1, Human recombinant MAO-B (hMAO-B) (Homo sapiens, UniProt P27338); assay: MAO-B inhibition assay (Amplex Red fluorescence, benzylamine substrate); assay type: biochemical; conditions: for IC50: five doses 10, 1, 0.1, 0.01, 0.001 μM, triplicate; for Selectivity Index (SI): ratio of IC50 (MAO-A)/IC50 (MAO-B); for inhibition at 10 µM / % Inhibition of MAO-B at 10 µM: single dose 10 µM
T1 construct: purchased Sigma-Aldrich; host or cells: insect cells
T1 sequence (P27338 1-520): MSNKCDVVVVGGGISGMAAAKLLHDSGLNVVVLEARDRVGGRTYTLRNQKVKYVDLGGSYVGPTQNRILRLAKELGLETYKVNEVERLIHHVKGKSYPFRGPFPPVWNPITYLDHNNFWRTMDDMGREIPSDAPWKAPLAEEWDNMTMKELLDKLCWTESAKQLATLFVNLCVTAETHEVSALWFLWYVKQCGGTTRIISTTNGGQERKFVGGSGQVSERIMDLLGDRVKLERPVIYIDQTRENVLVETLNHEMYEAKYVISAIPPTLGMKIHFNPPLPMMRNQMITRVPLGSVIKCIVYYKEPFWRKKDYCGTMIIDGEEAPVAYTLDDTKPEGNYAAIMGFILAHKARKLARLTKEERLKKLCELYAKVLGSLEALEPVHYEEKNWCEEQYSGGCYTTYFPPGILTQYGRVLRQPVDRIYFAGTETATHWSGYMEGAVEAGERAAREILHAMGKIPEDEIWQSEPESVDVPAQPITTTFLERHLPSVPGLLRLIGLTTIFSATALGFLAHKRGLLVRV
Method: (§1) The biological evaluation of the tested compounds over both MAO-A and MAO-B was performed following the previously reported method. The MAO activity was measured in relative fluorescence units (RFU) evoked by peroxidase-catalyzed oxidation of Amplex Red® to resorufin, in which H2O2 generated by MAO reaction was used as the electron donor. Human recombinant MAO-A (hMAO-A) and MAO-B (hMAO-B) enzymes expressed in insect cells were obtained from Sigma-Aldrich. The 2 μL of test compound in DMSO (final concentration: 1–10 μM) was treated with 98 μL of hMAO enzyme solution in 50 mM sodium phosphate buffer (pH 7.4, final protein amounts: ~1.25 μg protein/well for MAO-A and ~2.5 μg protein/well for MAO-B) on 96-well black plate and incubated for 15 min at 37 °C. Then, 100 μL of reaction working solution which is a mixed solution of 400 μM Amplex Red® (Cayman, final concentration: 200 μM), 2 U/mL horseradish peroxidase (Sigma-Aldrich, final concentration: 1 U/mL) and 2 mM substrate (p-tyramine for MAO-A, benzylamine for MAO-B, Sigma-Aldrich, final concentration: 1 mM) in 50 mM sodium phosphate buffer (pH 7.4) were added and incubated for 20 min at 37 °C in the dark. The fluorescent intensity was quantified using a microplate reader (SpectraMax®i3, Molecular Device) with an excitation at 545 nm and an emission at 590 nm. The 50% inhibitory concentrations (IC50) of compounds were determined as the mean ± S.E.M. in triplicate from the dose-response inhibition curves using SigmaPlot® 13.0 (Systat Software Inc., San Jose, CA, USA).

[2] = biological target: T2, Human recombinant MAO-A (hMAO-A) (Homo sapiens, UniProt P21397); assay: MAO-A inhibition assay (Amplex Red fluorescence, p-tyramine substrate); assay type: biochemical
T2 construct: purchased Sigma-Aldrich; host or cells: insect cells
T2 sequence (P21397 1-527): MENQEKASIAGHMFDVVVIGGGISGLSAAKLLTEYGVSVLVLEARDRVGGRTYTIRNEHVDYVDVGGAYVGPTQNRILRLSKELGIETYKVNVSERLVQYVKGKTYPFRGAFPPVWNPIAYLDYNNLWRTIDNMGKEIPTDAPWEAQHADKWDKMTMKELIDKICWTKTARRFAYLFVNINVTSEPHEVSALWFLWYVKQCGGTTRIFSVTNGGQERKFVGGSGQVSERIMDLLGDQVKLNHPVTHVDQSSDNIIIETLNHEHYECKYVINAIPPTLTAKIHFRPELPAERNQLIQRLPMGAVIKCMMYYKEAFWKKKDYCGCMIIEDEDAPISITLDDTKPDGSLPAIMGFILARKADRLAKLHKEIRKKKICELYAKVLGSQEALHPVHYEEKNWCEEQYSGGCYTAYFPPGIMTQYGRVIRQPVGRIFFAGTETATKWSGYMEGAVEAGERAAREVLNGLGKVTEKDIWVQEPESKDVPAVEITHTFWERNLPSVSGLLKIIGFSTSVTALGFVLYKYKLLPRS
Method: as §1, with “([…])” for “(final concentration: 1–10 μM)”

PC12 cells [3] = assay: 6-OHDA-induced ROS generation in PC12 cells (H2-DCFDA); assay type: cell-based, rat; conditions: 10 μM compound, 6-OHDA 50 μM 20 h
Method: (§2) The involvement of oxidative stress in the observed reduction in cell viability was investigated using the fluorescent dye H2-DCFDA as described previously. Briefly, cells were loaded with 10 μM H2-DCFDA for 30 min at 37 °C. Subsequently, cells were exposed for 4 h to 10 μM of test compounds followed by the addition of 50 μM 6-OHDA or 1 μM rotenone for 20 h, and fluorescence was measured spectrophotometrically at 488/520 nm in a microplate reader (SpectraMax M2e). N-acetylcysteine (NAC, 5 mM) was included as a […] control for oxidative stress.

PC12 cells [4] = assay: Rotenone-induced ROS generation in PC12 cells (H2-DCFDA); assay type: cell-based, rat; conditions: 10 μM compound, rotenone 1 μM 20 h
Method: as §2

SMILES: COC(=O)c1ccc2c(ccn2C(=O)c2ccc(Cl)c(Cl)c2)c1 [Compound 7b, Methyl 1-(3,4-dichlorobenzoyl)-1H-indole-5-carboxylate]
- IC50 [1]: 330 nM and 328 nM
- Selectivity Index (SI) [1]: >305
- inhibition at 10 µM [1]: 84.1%
- IC50 [2]: > 100000 nM
- inhibition at 10 µM [2]: < 10%
- inhibition at 30 µM [2]: < 10%
- inhibition at 100 µM [2]: < 10%
- Effect on 6-OHDA-induced ROS generation (PC12 cells [3]): significantly decreased
- Effect on rotenone-induced intracellular ROS production (PC12 cells [4]): attenuated

SMILES: O=C(Nc1ccc(I)cc1)c1ccc2[nH]ccc2c1 [Compound 8a, N-(4-iodophenyl)-1H-indole-5-carboxamide]
- IC50 [1]: 27.4 nM
- Selectivity Index (SI) [1]: >3649
- % Inhibition of MAO-B at 10 µM [1]: 99.3 ± 0.0%
- inhibition at 10 µM [1]: > 99%
- IC50 [2]: > 100000 nM
- inhibition at 10 µM [2]: 17.2%
- inhibition at 30 µM [2]: 21.7%
- inhibition at 100 µM [2]: 23.5%
- Effect on 6-OHDA-induced ROS generation (PC12 cells [3]): not effective
- Effect on rotenone-induced intracellular ROS production (PC12 cells [4]): not effective

SMILES: O=C(Nc1ccc(Br)cc1)c1ccc2[nH]ccc2c1 [Compound 8b, N-(4-bromophenyl)-1H-indole-5-carboxamide]
- IC50 [1]: 30 nM and 30.5 nM
- Selectivity Index (SI) [1]: >3278
- % Inhibition of MAO-B at 10 µM [1]: 99.4 ± 0.0%
- inhibition at 10 µM [1]: > 99%
- IC50 [2]: > 100000 nM
- inhibition at 10 µM [2]: 15.1%
- inhibition at 30 µM [2]: 27.9%
- inhibition at 100 µM [2]: 30.1%
- Effect on 6-OHDA-induced ROS generation (PC12 cells [3]): significantly decreased
- Effect on rotenone-induced intracellular ROS production (PC12 cells [4]): attenuated

SMILES: O=C(Nc1ccc2c(c1)OCO2)c1ccc2[nH]ccc2c1 [Compound 8e, N-(benzo[d][1,3]dioxol-5-yl)-1H-indole-5-carboxamide]
- IC50 [1]: 450 nM and 453 nM
- Selectivity Index (SI) [1]: >220
- inhibition at 10 µM [1]: 89.6 ± 0.4%
- IC50 [2]: > 100000 nM
- inhibition at 10 µM [2]: < 10%
- inhibition at 30 µM [2]: < 10%
- inhibition at 100 µM [2]: < 10%
- Effect on 6-OHDA-induced ROS generation (PC12 cells [3]): significantly decreased
- Effect on rotenone-induced intracellular ROS production (PC12 cells [4]): attenuated
